Data from paper PMC6093650, “Antidepressive and anxiolytic effects of ostruthin, a TREK-1 channel activator” (PLoS ONE, 2018).

Experiments:
HERG-3 = target: T1, HERG-3 (Homo sapiens, UniProt Q9NS40); test: whole-cell patch-clamp of HERG-3 currents in 293T cells; assay type: cell-based; conditions: 100 μM (data not shown)
T1 construct: expressed in transfected cells; host or cells: 293T (transient, calcium-phosphate transfection)
T1 sequence (Q9NS40 1-1196): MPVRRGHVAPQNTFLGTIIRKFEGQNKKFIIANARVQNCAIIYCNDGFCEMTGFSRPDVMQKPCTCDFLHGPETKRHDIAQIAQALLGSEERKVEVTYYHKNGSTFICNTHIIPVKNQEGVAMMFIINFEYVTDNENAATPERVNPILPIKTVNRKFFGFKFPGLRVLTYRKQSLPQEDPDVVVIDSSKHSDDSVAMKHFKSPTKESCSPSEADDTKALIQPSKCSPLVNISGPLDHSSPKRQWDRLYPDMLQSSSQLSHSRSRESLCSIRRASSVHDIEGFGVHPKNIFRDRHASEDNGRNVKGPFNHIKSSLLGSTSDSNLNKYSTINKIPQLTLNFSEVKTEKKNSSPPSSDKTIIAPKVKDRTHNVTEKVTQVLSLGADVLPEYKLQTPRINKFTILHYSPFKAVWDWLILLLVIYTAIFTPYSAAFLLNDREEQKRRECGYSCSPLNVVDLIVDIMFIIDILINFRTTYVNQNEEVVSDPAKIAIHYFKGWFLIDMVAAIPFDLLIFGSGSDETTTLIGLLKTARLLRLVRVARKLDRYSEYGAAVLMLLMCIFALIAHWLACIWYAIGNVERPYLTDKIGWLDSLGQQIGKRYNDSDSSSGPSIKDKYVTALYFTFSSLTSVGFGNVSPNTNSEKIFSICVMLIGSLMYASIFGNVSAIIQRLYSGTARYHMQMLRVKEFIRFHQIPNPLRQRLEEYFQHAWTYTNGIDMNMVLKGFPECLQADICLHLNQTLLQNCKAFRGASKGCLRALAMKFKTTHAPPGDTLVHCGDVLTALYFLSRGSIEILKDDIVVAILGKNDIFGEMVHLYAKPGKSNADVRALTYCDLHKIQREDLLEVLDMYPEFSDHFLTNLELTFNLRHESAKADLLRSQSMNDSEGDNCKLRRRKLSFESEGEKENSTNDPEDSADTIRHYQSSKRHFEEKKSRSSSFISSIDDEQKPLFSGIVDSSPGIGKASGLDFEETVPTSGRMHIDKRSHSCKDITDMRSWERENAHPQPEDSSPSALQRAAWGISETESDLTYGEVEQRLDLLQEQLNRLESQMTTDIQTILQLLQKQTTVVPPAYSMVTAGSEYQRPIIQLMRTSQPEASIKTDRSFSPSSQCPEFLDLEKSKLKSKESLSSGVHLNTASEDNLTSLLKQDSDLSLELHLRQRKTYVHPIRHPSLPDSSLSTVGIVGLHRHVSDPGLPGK
Source text: For recordings of K^+ channel currents, we prepared stable cell lines for TREK-1, TWIK-related acid-sensitive K^+ channel (TASK-1), strongly inwardly rectifying K^+ channel (Kir2.1), and human ether-a-go-go-related gene (HERG-1) channels and transiently expressed other channels in 293T cells using a calcium-phosphate transfection method. For the establishment of the stable lines, we used lentiviral vectors, and the preparation methods for the lentiviral vectors were described in our previous report. TR-1 cells, which stably expressed TREK-1 channel and were grown on a small cover glass (3 × 18 mm), were placed in a recording chamber with an internal volume of 200 μl. Whole-cell currents were recorded in Tyrode solution using an Axopatch 200B amplifier (Axon Instruments, Foster City, CA) at 25°C. Tyrode solution contained (in mM): NaCl 140, KCl 5.4, NaH2PO4 0.33, CaCl2 2, MgCl2 1, HEPES 5, and glucose 5.5 (pH 7.4 adjusted with NaOH). […] Perfusion (100 μl/min) was continued to maintain the water level throughout recordings. pH and osmotic pressure of solutions were measured with a pH meter (Horiba, Kyoto, Japan) and a freezing point osmometer (Knauer, Berlin, Germany), respectively. […]

[1] = tested on: depression-like behavior of mice; test: tail suspension test; assay type: in vivo
Source text: Male ICR mice (n = 317 in total) aged 5 weeks and weighing 32 ± 2 g were purchased from Shimizu Laboratory Supplies (Kyoto, Japan). For the social defeat stress test, we used 28 C57BL/6J mice (5 weeks old, Shimizu Laboratory Supplies) and 30 ICR mice (7–8 weeks old, Charles River Labs Japan, Yokohama, Kanagawa, Japan). Mice were maintained for at least 1 week prior to experiments. Animals were kept in groups in plastic cages. They had free access to food and water, and were kept in a 12-h light/dark cycle (08:00–20:00). Experiments were carried out between 10:00 and 18:00 in a quiet and air-conditioned experimental room, in which mice were habituated for at least 30 min before each experiment. Animal experiments were performed in accordance with the guidelines of the Physiological Society of Japan and were approved by the Committees on Animal Experiments at Kansai Medical University and the Kurashiki University of Science and the Arts. Ostruthin was initially dissolved in DMSO at higher concentration (100 mM) and then diluted in phosphate-buffered saline (PBS). The diluted solution was mixed vigorously for more than 10 min before the experiments, and an equal volume of DMSO was added to PBS as a control. PBS and ostruthin were administered intraperitoneally 30 min before mice behavioral tests (0.01 ml/g body weight). Each animal was used only once, except for the wheel running test, which was carried out immediately after elevated plus maze.
The tail suspension test was performed in accordance with a method reported previously. The mouse was hung on a hook using adhesive tape placed 2 cm from the extremity of its tail 50 cm above the table. The amount of time spent immobile was recorded for 5 min.

[2] = tested on: GABAergic mIPSCS in the amygdala neurons; test: GABAergic mIPSCs in amygdala neurons (preliminary data); assay type: cell-based; conditions: 100 μM

CC(C)=CCC/C(C)=C/Cc1cc2ccc(=O)oc2cc1O [ostruthin]
effect on HERG-3 channels (HERG-3): no effect | time spent immobile ([1]; amlodipine experiment: single compound vs PBS, ostruthin 5 mg/kg or amlodipine 10 mg/kg, n = 9 and 13): significantly decreased | time spent immobile ([1]; i.p. 30 min before test, 5 min, n = 14, vs PBS): decreased | time spent immobile ([1]; ostruthin 5 mg/kg in the presence of amlodipine 10 mg/kg (co-administration)): no effect | time spent immobile ([1]; ostruthin given 30 min after pre-administration of amlodipine, vs secondary PBS, n = 8): ineffective | amplitude or frequency of GABAergic mIPSCS in the amygdala neurons [2]: no effect
